Target: VHL (Homo sapiens (Human), UniProt P40337)
Assay: VHL fluorescence polarization (FP) competition assay
Type: binding

| IC50 (1% in DMSO) [µM] | IC50 (10% in DMSO) [µM] | SMILES |
| --- | --- | --- |
| 0.169 | – | COc1ccc(CCC(=O)N[C@H](C(=O)N2C[C@H](O)C[C@H]2C(=O)NCc2ccc(-c3scnc3C)cc2)C(C)(C)C)cc1 [Example 76, (2S,4R)-4-hydroxy-1-((S)-2-(3-(4-methoxyphenyl)propanamido)-3,3-dimethylbutanoyl)-N-(4-(4-methylthiazol-5-yl)benzyl)pyrrolidine-2-carboxamide] |
| 0.55 | 0.349 | COc1cccc(CCC(=O)N[C@H](C(=O)N2C[C@H](O)C[C@H]2C(=O)NCc2ccc(-c3scnc3C)cc2)C(C)(C)C)c1 [Example 77, (2S,4R)-4-hydroxy-1-((S)-2-(3-(3-methoxyphenyl)propanamido)-3,3-dimethylbutanoyl)-N-(4-(4-methylthiazol-5-yl)benzyl)pyrrolidine-2-carboxamide] |
| 1.03 | 0.81 | Cc1ncsc1-c1ccc(CNC(=O)[C@@H]2C[C@@H](O)CN2C(=O)[C@@H](NC(=O)c2ccccn2)C(C)(C)C)cc1 [Example 78, N—((S)-1-((2S,4R)-4-hydroxy-2-(4-(4-methylthiazol-5-yl)benzylcarbamoyl)pyrrolidin-1-yl)-3,3-dimethyl-1-oxobutan-2-yl)picolinamide] |
| > 100 | > 100 | CC(C)[C@@H](C(=O)N1C[C@](C)(O)C[C@H]1C(=O)O)N1Cc2ccccc2C1=O [Example 79, (2S,4R)-4-hydroxy-4-methyl-1-[(2S)-3-methyl-2-(1-oxo-2,3-dihydro-1H-isoindol-2-yl)butanoyl]pyrrolidine-2-carboxylic acid] |
| 22.4 | 38.9 | Cc1cnccc1-c1ccc(CNC(=O)[C@@H]2C[C@@H](O)CN2C(=O)[C@H](C(C)C)N2Cc3ccccc3C2=O)cc1 [Example 80, (2S,4R)-4-hydroxy-1-((S)-3-methyl-2-(1-oxoisoindolin-2-yl)butanoyl)-N-(4-(3-methylpyridin-4-yl)benzyl)pyrrolidine-2-carboxamide] |
| > 49 | 371 | COc1ccc(CNC(=O)[C@@H]2C[C@@H](O)CN2C(=O)[C@H](C(C)C)N2Cc3ccccc3C2=O)cc1 [Example 81, (2S,4R)-4-hydroxy-N-(4-methoxybenzyl)-1-((S)-3-methyl-2-(1-oxoisoindolin-2-yl)butanoyl)pyrrolidine-2-carboxamide] |
| 1.64 | 1.58 | Cc1ncsc1-c1ccc(CNC(=O)[C@@H]2C[C@@H](O)CN2C(=O)[C@H](C(C)C)N2Cc3ccccc3C2=O)c(F)c1 [Example 82, (2S,4R)—N-(2-fluoro-4-(4-methylthiazol-5-yl)benzyl)-4-hydroxy-1-((S)-3-methyl-2-(1-oxoisoindolin-2-yl)butanoyl)pyrrolidine-2-carboxamide] |
| 0.626 | 0.32 | COc1ccccc1CCC(=O)N[C@H](C(=O)N1C[C@H](O)C[C@H]1C(=O)NCc1ccc(-c2scnc2C)cc1)C(C)(C)C [Example 83, (2S,4R)-4-hydroxy-1-((S)-2-(3-(2-methoxyphenyl)propanamido)-3,3-dimethylbutanoyl)-N-(4-(4-methylthiazol-5-yl)benzyl)pyrrolidine-2-carboxamide] |
| 1.24 | 1.46 | Cc1ncsc1-c1ccc(CNC(=O)[C@@H]2C[C@@H](O)CN2C(=O)[C@@H](NC(=O)c2cccnc2)C(C)(C)C)cc1 [Example 84, N—((S)-1-((2S,4R)-4-hydroxy-2-(4-(4-methylthiazol-5-yl)benzylcarbamoyl)pyrrolidin-1-yl)-3,3-dimethyl-1-oxobutan-2-yl)nicotinamide] |
| 151 | 225 | CC(=O)NCC(=O)N1C[C@H](O)C[C@H]1C(=O)NCc1ccc(-c2scnc2C)cc1 [Example 86, (2S,4R)-1-(2-acetamidoacetyl)-4-hydroxy-N-(4-(4-methylthiazol-5-yl)benzyl)pyrrolidine-2-carboxamide] |
| 384 | 263 | CC(=O)O[C@@H](C)C(=O)N1C[C@H](O)C[C@H]1C(=O)NCc1ccc(-c2scnc2C)cc1 [Example 87, (S)-1-((2S,4R)-4-hydroxy-2-(4-(4-methylthiazol-5-yl)benzylcarbamoyl)pyrrolidin-1-yl)-1-oxopropan-2-yl acetate] |
| 20.4 | 39.2 | COc1ccc(C(=O)N2C[C@H](O)C[C@H]2C(=O)NCc2ccc(-c3scnc3C)cc2)c(C)c1 [Example 88, (2S,4R)-4-hydroxy-1-(4-methoxy-2-methylbenzoyl)-N-(4-(4-methylthiazol-5-yl)benzyl)pyrrolidine-2-carboxamide] |
| 60.6 | 139 | Cc1ncsc1-c1ccc(CNC(=O)[C@@H]2C[C@@H](O)CN2C(=O)C(N)C(F)(F)F)cc1 (stereo partly drawn) [Example 89, (2S,4R)-1-(2-amino-3,3,3-trifluoropropanoyl)-4-hydroxy-N-(4-(4-methylthiazol-5-yl)benzyl)pyrrolidine-2-carboxamide] |
| 45.2 | 47.9 | CC(=O)NC(C(=O)N1C[C@H](O)C[C@H]1C(=O)NCc1ccc(-c2scnc2C)cc1)C(F)(F)F (stereo partly drawn) [Example 90, (2S,4R)-1-(2-acetamido-3,3,3-trifluoropropanoyl)-4-hydroxy-N-(4-(4-methylthiazol-5-yl)benzyl)pyrrolidine-2-carboxamide] |
| > 100 | – | CC(C)[C@@H](C(=O)N1C[C@H](O)C[C@H]1C(=O)NCc1ccc(N2CCOCC2)cc1)N1Cc2ccccc2C1=O [Example 91, (2S,4R)-4-hydroxy-1-((S)-3-methyl-2-(1-oxoisoindolin-2-yl)butanoyl)-N-(4-morpholinobenzyl)pyrrolidine-2-carboxamide] |
| 1.65 | – | CC(C)[C@@H](C(=O)N1C[C@H](O)C[C@H]1C(=O)NCc1ccc(-c2ccnn2C)cc1)N1Cc2ccccc2C1=O [Example 92, (2S,4R)-4-hydroxy-N-(4-(1-methyl-1H-pyrazol-5-yl)benzyl)-1-((S)-3-methyl-2-(1-oxoisoindolin-2-yl)butanoyl)pyrrolidine-2-carboxamide] |
| 1.2 | – | Cc1ncsc1-c1ccc(CNC(=O)[C@@H]2C[C@@H](O)CN2C(=O)[C@H](C(C)C)N2Cc3ccccc3C2=O)cc1F [Example 93, (2S,4R)—N-(3-fluoro-4-(4-methylthiazol-5-yl)benzyl)-4-hydroxy-1-((S)-3-methyl-2-(1-oxoisoindolin-2-yl)butanoyl)pyrrolidine-2-carboxamide] |
| 0.566 | – | CC[C@H](C)[C@@H](C(=O)N1C[C@H](O)C[C@H]1C(=O)NCc1ccc(-c2scnc2C)cc1)N1Cc2ccc(F)cc2C1=O [Example 94, (2S,4R)-1-((2S,3S)-2-(6-fluoro-1-oxoisoindolin-2-yl)-3-methylpentanoyl)-4-hydroxy-N-(4-(4-methylthiazol-5-yl)benzyl)pyrrolidine-2-carboxamide] |
| 23.4 | – | COc1ccc(C)c(C(=O)N2C[C@H](O)C[C@H]2C(=O)NCc2ccc(-c3scnc3C)cc2)c1 [Example 95, (2S,4R)-4-hydroxy-1-(5-methoxy-2-methylbenzoyl)-N-(4-(4-methylthiazol-5-yl)benzyl)pyrrolidine-2-carboxamide] |
| 35.4 | – | CC(C)[C@@H](C(=O)N1C[C@H](O)C[C@H]1C(=O)NCc1ccc(-c2cncn2C)cc1)N1Cc2ccccc2C1=O [Example 96, (2S,4R)-4-hydroxy-N-(4-(1-methyl-1H-imidazol-5-yl)benzyl)-1-((S)-3-methyl-2-(1-oxoisoindolin-2-yl)butanoyl)pyrrolidine-2-carboxamide] |
| 1.45 | – | CC(C)[C@@H](C(=O)N1C[C@H](O)C[C@H]1C(=O)NCc1ccc(-c2cncs2)cc1)N1Cc2ccccc2C1=O [Example 97, (2S,4R)-4-hydroxy-1-((S)-3-methyl-2-(1-oxoisoindolin-2-yl)butanoyl)-N-(4-(thiazol-5-yl)benzyl)pyrrolidine-2-carboxamide] |
| 4.15 | – | Cc1ncsc1-c1ccc(CNC(=O)[C@@H]2C[C@@H](O)CN2C(=O)[C@H](C(C)C)N2CCCC2=O)cc1 [Example 98, (2S,4R)-4-hydroxy-1-((S)-3-methyl-2-(2-oxopyrrolidin-1-yl)butanoyl)-N-(4-(4-methylthiazol-5-yl)benzyl)pyrrolidine-2-carboxamide] |
| 0.418 | – | Cc1ncsc1-c1ccc(CNC(=O)[C@@H]2C[C@@H](O)CN2C(=O)[C@H](C(C)C)N2Cc3ncccc3C2=O)cc1 [Example 99, (2S,4R)-4-hydroxy-1-((S)-3-methyl-2-(5-oxo-5H-pyrrolo[3,4-b]pyridin-6(7H)-yl)butanoyl)-N-(4-(4-methylthiazol-5-yl)benzyl)pyrrolidine-2-carboxamide] |
| 9.77 | – | CC(C)[C@@H](C(=O)N1C[C@H](O)C[C@H]1C(=O)NCc1ccc(-c2cnn[nH]2)cc1)N1Cc2ccccc2C1=O [Example 100, (2S,4R)—N-(4-(1H-1,2,3-triazol-5-yl)benzyl)-4-hydroxy-1-((S)-3-methyl-2-(1-oxoisoindolin-2-yl)butanoyl)pyrrolidine-2-carboxamide] |
| 4.39 | – | CC(C)[C@@H](C(=O)N1C[C@H](O)C[C@H]1C(=O)NCc1ccc(-c2ncon2)cc1)N1Cc2ccccc2C1=O [Example 101, (2S,4R)—N-(4-(1,2,4-oxadiazol-3-yl)benzyl)-4-hydroxy-1-((S)-3-methyl-2-(1-oxoisoindolin-2-yl)butanoyl)pyrrolidine-2-carboxamide] |
| 7.75 | – | CC(C)[C@@H](C(=O)N1C[C@H](O)C[C@H]1C(=O)NCc1ccc(-c2scnc2C(F)(F)F)cc1)N1Cc2ccccc2C1=O [Example 102, (2S,4R)-4-hydroxy-1-((S)-3-methyl-2-(1-oxoisoindolin-2-yl)butanoyl)-N-(4-(4-(trifluoromethyl)thiazol-5-yl)benzyl)pyrrolidine-2-carboxamide] |
| 33.8 | – | Cc1ncn(C)c1-c1ccc(CNC(=O)[C@@H]2C[C@@H](O)CN2C(=O)[C@H](C(C)C)N2Cc3ccccc3C2=O)cc1 [Example 103, (2S,4R)—N-(4-(1,4-dimethyl-1H-imidazol-5-yl)benzyl)-4-hydroxy-1-((S)-3-methyl-2-(1-oxoisoindolin-2-yl)butanoyl)pyrrolidine-2-carboxamide] |
| > 10 | – | CC[C@H](C)[C@H](NCCc1ccccc1)C(=O)N1C[C@H](O)C[C@H]1C(=O)NCc1ccc(-c2scnc2C)cc1 [Example 104, (2S,4R)-4-hydroxy-1-((2S,3S)-3-methyl-2-(phenethylamino)pentanoyl)-N-(4-(4-methylthiazol-5-yl)benzyl)pyrrolidine-2-carboxamide] |
